According to patent publication US20060101536A1, “Eucalyptus urophylla transformation and regeneration” (ArborGen, LLC, priority 2004, published 2006):

What was measured:
E. urophylla = assay: Combining auxin with Agrobacterium inducer in pre-culture, infection by GUS staining; assay type: cell-based, Eucalyptus urophylla; details: Table 8
Method: Induced Agrobacterium culture was prepared as described in Example 3 and the culture was dripped onto each explant by pipette. Sufficient Agrobacterium culture was dripped to ensure that all the cut edges were covered with bacterial solution. Alternatively, the explants may be transformed by vacuum infiltration, floral dip, and other methods of Agrobacterium-mediated transformation. Following transformation, explants covered with Agrobacterium culture were placed in the dark for four days of co-cultivation. Alternatively, the explants may be co-cultivated with Agrobacterium under light conditions. Additionally, the explants may be co-cultivated with Agrobacterium under light or dark conditions for 2-10 days, preferably 4 days. Following co-cultivation, the explants were transferred to Euc Regeneration medium (Table 3) with 400 mg/l timentin. There is no need to wash explants. Explants were cultured on this medium for four days before transfer to a selection medium. In the present example, the selection medium is the Euc Regeneration medium supplemented with both timentin and an herbicide selection agent.
(§1) GUS staining was performed to monitor the frequency of Agrobacterium infection and to ensure that the selected shoots are not escapes or chimeras. For transformation experiments with pWVR133, the leaf and stem tissues from the regenerated shoots were stained for GUS expression immediately upon shoot development. For transformation experiments with pWVZ20, leaf and stem tissues from the regenerated shoots were stained for GUS expression when shoots are further developed and free from residual Agrobacterium. To determine GUS activity, the explants were incubated in a substrate comprising 100 mM phosphate buffer (pH 7.0), 0.05% dimethyl suphoxide, 0.05% Triton X-100, 10 mM EDTA, 0.5 mM potassium ferrocyanide, and 1.5 mg/ml 5-bromo-4-chloro-3-indolyl-β-D-glucuronide (X-gluc). The explants were subjected to 10 minutes of vacuum before an overnight incubation at 37° C. Following overnight incubation, GUS foci were counted.
In the following examples, explants from E. urophylla clones were cultured on auxin-rich pre-culture medium with or without 250 μM AS before infection. Explants were pre-cultured with Euc Regeneration medium as the control. Following pre-culture, the explants were inoculated with Agrobacterium as described in Example 5.

[1] = system: Elite Eucalyptus urophylla clone; assay: Auxin pre-treatment, Agrobacterium infection rate by GUS staining; assay type: cell-based
Method: GUS staining was performed to monitor the frequency of Agrobacterium infection and to ensure that the selected shoots are not escapes or chimeras. […] To determine GUS activity, the explants were incubated in a substrate comprising 100 mM phosphate buffer (pH 7.0), 0.05% dimethyl suphoxide, 0.05% Triton X-100, 10 mM EDTA, 0.5 mM potassium ferrocyanide, and 1.5 mg/ml 5-bromo-4-chloro-3-indolyl-β-D-glucuronide (X-gluc). The explants were subjected to 10 minutes of vacuum before an overnight incubation at 37° C. Following overnight incubation, GUS foci were counted.
Explants from E. urophylla and E. saligna were prepared as described in Example 1 and Agrobacterium strain GV2260 containing pWVR133 was prepared as described in Example 3. Harvested explants were incubated in the dark for 4 days either on Eucalyptus regeneration medium or a medium with various auxin-rich growth regulators. Agrobacterium culture was dripped on explants and co-cultured with the explants on the same medium for 3 days in dark. Then, explants were removed from the Agrobacterium puddle and transferred to Euc Regeneration medium supplemented with 400 mg/l timentin for 4 days. Following transfer to regeneration medium, the explants were stained for GUS expression.

[2] = system: Elite Eucalyptus urophylla clone; assay: Shoot regeneration after pre-culture in control experiments; assay type: cell-based; details: medium with 1.0 mg/l 2,4-D (0.5 mg/l zeatin)
Excerpt: In addition, the regeneration is not affected by the pre-culture in control experiments.

[3] = system: E. urophylla leaf explants; assay: Geneticin selection of NPTII transformants, GUS staining of resistant calli; assay type: cell-based, Eucalyptus urophylla; details: about 10 weeks selection
Method: as §1
E. urophylla leaf explants were infected with Agrobacterium strain GV2260 harboring pWVC33, which contains GUS gene (driven by an constitutive promoter) and NPTII gene (driven by a different constitutive promoter). Before transforming, the explants were pre-cultured for 4 days on a medium having auxin enrichment (IAA at 2 mg/l instead of 0.1 mg/l NAA in standard regeneration medium) and acetosyringone (250 μM). As described in Example 6, the explants were infected with Agrobacterium, co-cultivated on the same medium for 3 days, and then transferred to a regeneration medium supplemented with 400 mg/l timentin for 4 days. Then, the explants were transferred to a selection medium containing geneticin instead of an herbicide selection agent.
The transformants were placed on geneticin selection medium containing geneticin (either 20 or 30 mg/l). Instead of the 3- or 4-week transfer cycles used with an herbicide selection medium, the explants were transferred bi-weekly to fresh geneticin medium. […]

[4] = system: wounded cells along the cut edges; assay: Agrobacterium inducer alone in pre-culture medium, infection by GUS staining; assay type: cell-based
[5] = 0.1 mg/l NAA + 5.0 mg/l zeatin (Control Regeneration Medium)
[6] = Table 6, 0.1 mg/l NAA + 5.0 mg/l zeatin (Control Regeneration Medium)
[7] = Table 7, 0.1 mg/l in EucReg Medium + 5 mg/l zeatin
[8] = Table 7, 0.1 mg/l in EucReg Medium + 5 mg/l zeatin, 25 explants
[9] = Table 7, 1.0 mg/l in EucReg Medium + 5 mg/l zeatin
[10] = Table 7, 1.0 mg/l in EucReg Medium + 5 mg/l zeatin, 25 explants
[11] = Table 7, 2.0 mg/l in EucReg Medium + 5 mg/l zeatin
[12] = Table 7, 2.0 mg/l in EucReg Medium + 5 mg/l zeatin, 25 explants
[13] = 0.25 mg/l 2,4-D + 5.0 mg/l zeatin, with or without 250 μM AS
[14] = Table 6, 0.25 mg/l 2,4-D + 0.5 mg/l zeatin
[15] = Table 6, 1.0 mg/l 2,4-D + 0.5 mg/l zeatin
[16] = Table 7, 0.5 mg/l in EucReg Medium + 5 mg/l zeatin
[17] = Table 7, 0.5 mg/l in EucReg Medium + 5 mg/l zeatin, 25 explants
[18] = 2 mg/l IAA + 5.0 mg/l zeatin, with or without 250 μM AS
[19] = Table 7, 3.0 mg/l in EucReg Medium + 5 mg/l zeatin

| Compound | % GUS+ [1, 7] [%] | Avg. No. Foci/Responding Explant [1, 7] | No. GUS Foci [1, 7] | No. GUS+ [1, 8] | % GUS+ [1, 9] [%] | Avg. No. Foci/Responding Explant [1, 9] | No. GUS Foci [1, 9] | No. GUS+ [1, 10] | % GUS+ [1, 11] [%] | Avg. No. Foci/Responding Explant [1, 11] | No. GUS Foci [1, 11] | No. GUS+ [1, 12] | % GUS+ [1, 16] [%] | Avg. No. Foci/Responding Explant [1, 16] | No. GUS Foci [1, 16] | No. GUS+ [1, 17] | also measured |
| --- | --- | --- | --- | --- | --- | --- | --- | --- | --- | --- | --- | --- | --- | --- | --- | --- | --- |
| O=C(O)Cc1cccc2ccccc12 [NAA, naphthaleneacetic acid] | 16 | 1.3 | 5 | 4 | 52 | 2.7 | 35 | 13 | 36 | 3.3 | 30 | 9 | – | – | – | – | % GUS+ (E. urophylla; [5]): 22%; Avg. No. Foci/Responding Explant (E. urophylla; [5]): 3.4; No. GUS Foci (E. urophylla; [5]): 37; No. GUS+ (E. urophylla; 0.1 mg/l NAA + 5.0 mg/l zeatin (Control Regeneration Medium), 50 explants): 11; % GUS+ [1, 6]: 12%; Avg. No. Foci/Responding Explant [1, 6]: 2.3; No. GUS Foci [1, 6]: 6; No. GUS+ ([1]; Table 6, 0.1 mg/l NAA + 5.0 mg/l zeatin (Control Regeneration Medium), 25 explants): 3 |
| O=C(O)COc1ccc(Cl)cc1Cl [2,4-D, 2,4-Dichlorophenoxy acetic acid] | – | – | – | – | 48 | 5.3 | 64 | 12 | – | – | – | – | 80 | 4.9 | 97 | 20 | % GUS+ (E. urophylla; [13]): 72%; Avg. No. Foci/Responding Explant (E. urophylla; [13]): 10.8; No. GUS Foci (E. urophylla; [13]): 388; No. GUS+ (E. urophylla; 0.25 mg/l 2,4-D + 5.0 mg/l zeatin, with or without 250 μM AS, 50 explants): 36; % GUS+ [1, 14]: 17%; Avg. No. Foci/Responding Explant [1, 14]: 1.5; No. GUS Foci [1, 14]: 7; No. GUS+ ([1]; Table 6, 0.25 mg/l 2,4-D + 0.5 mg/l zeatin, 24 explants): 4; % GUS+ [1, 15]: 60%; Avg. No. Foci/Responding Explant [1, 15]: 10.3; No. GUS Foci [1, 15]: 155; No. GUS+ ([1]; Table 6, 1.0 mg/l 2,4-D + 0.5 mg/l zeatin, 25 explants): 15; shoot regeneration [2]: delay of shoot regeneration |
| CN[C@@H]1[C@@H](O)[C@@H](O[C@@H]2[C@@H](O)[C@H](O[C@H]3O[C@H]([C@@H](C)O)[C@@H](O)[C@H](O)[C@H]3N)[C@@H](N)C[C@H]2N)OC[C@]1(C)O [Geneticin] | – | – | – | – | – | – | – | – | – | – | – | – | – | – | – | – | No. GUS+ Calli ([3]; Geneticin 20 mg/l, Regular shaded light, 5 calli stained): 0; No. GUS+ Calli ([3]; Geneticin 30 mg/l, Dark, 6 calli stained): 4; No. GUS+ Calli ([3]; Geneticin 30 mg/l, Regular shaded light, 17 calli stained): 13 |
| O=C(O)Cc1c[nH]c2ccccc12 [IAA, indole-3-acetic acid] | – | – | – | – | 64 | 7.3 | 116 | 16 | 64 | 10.4 | 167 | 16 | – | – | – | – | % GUS+ (E. urophylla; [18]): 73%; Avg. No. Foci/Responding Explant (E. urophylla; [18]): 8.0; No. GUS Foci (E. urophylla; [18]): 289; No. GUS+ (E. urophylla; 2 mg/l IAA + 5.0 mg/l zeatin, with or without 250 μM AS, 49 explants): 36; % GUS+ [1, 19]: 96%; Avg. No. Foci/Responding Explant [1, 19]: 12.3; No. GUS Foci [1, 19]: 565; No. GUS+ ([1]; Table 7, 3.0 mg/l in EucReg Medium + 5 mg/l zeatin, 48 explants): 46 |
| COc1cc(C(C)=O)cc(OC)c1O [AS, acetosyringone] | – | – | – | – | – | – | – | – | – | – | – | – | – | – | – | – | infection ([4]; AS alone in the pre-culture medium): stimulates infection; infection of the wounded cells along the cut edges ([4]; GUS staining): increases the infection of the wounded cells along the cut edges |
| O=C(Nc1ccccc1)Nc1cnns1 [TDZ, thiadiazuron] | 12 | 8.3 | 25 | 3 | 0 | 0.0 | 0 | 0 | – | – | – | – | 4 | 3.0 | 3 | 1 | – |
